Read-outs that look alike come from different tables or passages of the source.
Experiments:
platelet rich plasma = assay: Test for platelet aggregation-inhibiting activity in rabbit platelet rich plasma; format: cell-based, rabbit (Japanese white; male); conditions: Oryctolagus cuniculus, 0.5 h, 30 minutes incubation in PRP
Procedure: The mixture was centrifuged at 1100 rpm at 20°C for 15 minutes. The upper layer is a platelet rich plasma (RRP), and the lower layer was centrifuged at 2500 rpm at 20°C for 10 minutes, so that a platelet poor plasma (PPP) was obtained.
10 µℓ of a solution of the compound to be tested with a concentration of 10⁻⁴ moℓ/ℓ was added to 200 µℓ of PRP, and the mixture was subjected to incubation for 30 minutes. To the mixture was added 10 µℓ of a platelet activating factor (PAF)(10 µg/mℓ), or arachidonic acid (AA)(1 mM at final concentration). The extent of the aggregation was measured by Agricometer (NKK, PAT-4A).

[1] = system: thoracic aortas of rabbits; assay: Test for activity of inhibiting KCl-induced contraction; format: cell-based, rabbits (Japanese white rabbit; male); conditions: 3x10⁻⁶ M compound; 30 mM KCl; helical strips in Krebs-Henseleit solution at 37°C; determined in 60 minutes
Procedure: Herical strips of thoracic aortas of rabbits (Japanese white rabbit; male) were mounted vertically in organ baths of Krebs-Henselit solution at 37°C for 90 minutes, and then 30 mM of KCl was added to the baths. After 30 minutes, the compound to be tested was added to the baths, and the variations in the tension were recorded by an isometric kymograph, so that the inhibitory activity of the compound was determined in 60 minutes.

[2] = system: spontaneously hypertensive rats (aparalytic SHR; male); assay: Test for hypotensive activity; format: in vivo; conditions: for HR / T 1/2 / Peak: 300 µg/kg into the abdominal aorta of SHR; for MaxΔMBP: 300 µg/kg into the abdominal aorta of SHR through a canula, blood pressure by pressure transducer; for T 1/2: half time of the hypotensive effect; for Peak: time of peak of the hypotensive effect
Procedure: The test was carried out by employing spontaneously hypertensive rats (aparalytic SHR; male) according to Nakao et al method.
300 µg/kg of the compound to be tested was administrated into the abdominal aorta of SHR through a canula (previously inserted). The blood pressures in the whole body of the rats were measured with a pressure transducer (MPU-0.5, made by Nihon Koden K.K.).

IC50 (platelet rich plasma; aggregation induced by platelet activating factor (PAF) 10 µg/ml, read-out: IC₅₀ (M) PAF(10 µg/ml)) [M]	IC50 (platelet rich plasma; Platelet, aggregation induced by arachidonic acid (AA) 1 mM at final concentration, read-out: IC₅₀ (M) AA(1 mM)) [M]	Molecule	Inhibitory Effect on KCℓ-induced contraction(%) [1] [%]	HR [2] [beats/min]	MaxΔMBP [2] [mmHg]	T 1/2 [2] [min]	Peak [2] [min]
0.00011	0.00014	COC(=O)C1=C(C)NC(C)=C(C(=O)OC/C=C/c2ccc(Cn3ccnc3)cc2)C1c1cccc([N+](=O)[O-])c1 (single isomer, unassigned; (+)) [Example 36, (+)-3-[4-(1-imidazolylmethyl)phenyl]-2-propen-1-yl methyl-1,4-dihydro-2,6-dimethyl-4-(3-nitrophenyl)pyridine-3,5-dicarboxylate]	51.1 ± 11.6	49.0	51.4	3.4	0.9
		(-)-3-[4-(-(1-imidazolylmethyl)phenyl]-2-propen-1-yl methyl-1, 4-dihydro-2,6-dimethyl-4-(3-nitrophenyl)pyridine-3,5-dicarboxylate [Example 37]	16.8 ± 9.8	3.7	10.8	0.4	0.6

Source: patent publication EP0403957A2, “Optical active 1,4-dihydropyridine derivates” (FUJIREBIO INC., priority 1989, dated 1990)
